Experimental findings from PMC3163123 (Bioorganic & medicinal chemistry, 2011) are described below.

pIC50: −log10 of the molar value. Bounds are passed on as bounds.

The target in data set [1] is T1, recombinant wild-type HIV-1 IN (Human immunodeficiency virus type 1 group M subtype B, UniProt P12497). The data set is described as follows: Integrase catalytic activity assay, 3′-processing. The format is biochemical.
The subject of another data set is H630 colon cancer cells. Put plainly: MTT cytotoxicity assay. The format is cell-based. As to conditions: at the concentration of up to 40 μM. (In general: Formazan colour is commonly taken as a measure of viable cells.)
For data set [2], the target named is T1, recombinant wild-type HIV-1 IN. Put plainly: biochemical. The format is biochemical.

With `CN(C)Cc1ccc(C(=O)NCc2ccc(F)cc2)c(O)c1O` [Compound 6a, 4-((Dimethylamino)methyl)-N-(4-fluorobenzyl)-2,3-dihydroxybenzamide], the pIC50 in data set [1] was under 4.00.

In the case of `O=C(NO)c1c(O)cccc1OCc1ccc(F)cc1` [Compound 4d, 2-(4-fluorobenzyloxy)-N,6-dihydroxybenzamide], in data set [1], the pIC50 is under 4.00. `O=C(NCc1ccc(F)cc1)c1cccc(OCc2ccccc2)c1O` [Compound 5b, 3-(Benzyloxy)-N-(4-fluorobenzyl)-2-hydroxybenzamide]: the pIC50 in data set [1] is under 3.48. Besides, in the data set with H630 colon cancer cells, the “cytotoxicity in H630 cells” value was “not cytotoxic”. Take `COc1cc(S(=O)(=O)N2CCCCC2)cc(C(=O)NCc2ccco2)c1O` [Compound 6c, N-(Furan-2-ylmethyl)-2-hydroxy-3-methoxy-5-(piperidin-1-ylsulfonyl)benzamide]: the negative logarithm of the IC50 (pIC50) in data set [1] and in data set [2] was under 4.00 each time. Further, in data set [2], the “IN / strand transfer inhibitory potency” value is given as “severe loss of potency”. `O=C(NCc1ccc(F)cc1)c1cccc(O)c1O` [Compound 5a, N-(4-Fluorobenzyl)-2,3-dihydroxybenzamide]: the “cytotoxicity in H630 cells” value in the data set on H630 colon cancer cells is reported as “not cytotoxic”.

In the case of `O=C(O)c1cc(OCc2ccc(F)cc2)ccc1O` [Compound 3g, 5-(4-Fluorobenzyloxy)-2-hydroxybenzoic acid], the negative-log IC50 (pIC50) in data set [1] and in data set [2] was under 4.00 each time. Regarding `O=C(O)c1cccc(OCc2ccc3ccccc3c2)c1O` [Compound 3c, 3-((Naphthalen-2-yl)methoxy)-2-hydroxybenzoic acid], the negative logarithm of the IC50 (pIC50) in data set [1] was under 4.00.

With `O=C(NCc1ccc(-c2cccs2)cc1)c1cccc(O)c1O` [Compound 5j, 2,3-Dihydroxy-N-(4-(thiophen-2-yl)benzyl)benzamide], the negative-log IC50 (pIC50) in data set [1] is under 4.00. Take `O=C(NC1CCCCC1)c1cccc(O)c1O` [Compound 5l, N-Cyclohexyl-2,3-dihydroxybenzamide]: the negative-log IC50 (pIC50) in data set [1] and in data set [2] was under 4.00 throughout. As for `O=C(NO)c1ccc(OCc2ccc(F)cc2)cc1O` [Compound 4b, 4-(4-fluorobenzyloxy)-N,2-dihydroxybenzamide], the pIC50 in data set [1] was under 4.00. As to `O=C(NC1CCNCC1)c1cccc(O)c1O` [Compound 5k, 2,3-Dihydroxy-N-(piperidin-4-yl)benzamide], the negative logarithm of the IC50 (pIC50) in data set [1] and in data set [2] was under 4.00 each time. As for `O=C(O)c1cc(OCc2ccccc2)ccc1O` [Compound 3f, 5-(Benzyloxy)-2-hydroxybenzoic acid], the negative logarithm of the IC50 (pIC50) in data set [1] and in data set [2] was under 4.00 throughout. Turning to `O=C(NO)c1cc(OCc2ccc(F)cc2)ccc1O` [Compound 4c, 5-(4-fluorobenzyloxy)-N,2-dihydroxybenzamide], in data set [1], the negative-log IC50 (pIC50) was under 4.00. For `CNC(=O)Cc1ccccc1CNC(=O)c1cccc(O)c1O` [Compound 5n, 2,3-Dihydroxy-N-(2-(2-(methylamino)-2-oxoethyl)benzyl)benzamide], the negative-log IC50 (pIC50) in data set [1] is under 4.00. On to `CNC(=O)c1cc(F)ccc1CNC(=O)c1cccc(O)c1O` [Compound 5o, N-(4-Fluoro-2-(methylcarbamoyl)benzyl)-2,3-dihydroxybenzamide], for which the pIC50 in data set [1] was under 4.00. In addition, the “IN / strand transfer inhibitory potency” value in data set [2] is “loss of IN inhibitory potency”.

For `O=C(O)c1ccc(OCc2ccc(F)cc2)cc1O` [Compound 3e, 4-(4-Fluorobenzyloxy)-2-hydroxybenzoic acid], the pIC50 in data set [1] and in data set [2] was under 4.00 throughout. In the case of `O=C(O)c1cccc(OCc2ccccc2)c1O` [Compound 3a, 3-(Benzyloxy)-2-hydroxybenzoic acid], the pIC50 in data set [1] and in data set [2] was under 4.00 each time.

In the case of `O=C(NO)c1cccc(OCc2ccc(F)cc2)c1O` [Compound 4a, 3-(4-fluorobenzyloxy)-N,2-dihydroxybenzamide], the pIC50 in data set [1] and in data set [2] was under 4.00 each time. As to `O=C(NCc1ccc(F)c(F)c1)c1cccc(O)c1O` [Compound 5d, N-(3,4-Difluorobenzyl)-2,3-dihydroxybenzamide], the negative logarithm of the IC50 (pIC50) in data set [1] was under 4.00. As for `O=C(NCc1ccc(F)cc1)c1cc(S(=O)(=O)N2CCCCC2)cc(O)c1O` [Compound 5p, N-(4-Fluoro-benzyl)-2,3-dihydroxy-5-(piperidine-1-sulfonyl)-benzamide], the “selectivity for the strand transfer over the 3′-processing reaction” value in data set [2] (ratio of IC50 values) is recorded as “more than 40 fold”. As for `O=C(NCc1cccs1)c1cc(S(=O)(=O)N2CCCCC2)cc(O)c1O` [Compound 5v, N-(Thiophen-2-ylmethyl)-2,3-dihydroxy-5-(piperidin-1-ylsulfonyl)benzamide], the negative-log IC50 (pIC50) in data set [1] is under 4.00. Take `O=C(O)c1c(O)cccc1OCc1ccccc1` [Compound 3h, 2-(Benzyloxy)-6-hydroxybenzoic acid]: the pIC50 in data set [1] and in data set [2] was under 4.00 throughout.

Regarding `Nc1cccc(C(=O)NCc2ccco2)c1O` [Compound 6d, 3-Amino-N-(furan-2-ylmethyl)-2-hydroxybenzamide], the negative logarithm of the IC50 (pIC50) in data set [1] and in data set [2] was under 4.00 each time. Further, the “IN / strand transfer inhibitory potency” value in data set [2] is “severe loss of potency”.

Regarding `O=C(NCc1ccco1)c1cc(S(=O)(=O)N2CCCCC2)cc(O)c1O` [Compound 5s, N-(Furan-2-ylmethyl)-2,3-dihydroxy-5-(piperidin-1-ylsulfonyl)benzamide], the pIC50 in data set [1] was under 4.00. For `CS(=O)(=O)Nc1cc(O)c(O)c(C(=O)NCc2ccc(F)cc2)c1` [Compound 5w, N-(4-Fluorobenzyl)-2,3-dihydroxy-5-(methylsulfonamido)benzamide], the pIC50 in data set [1] was under 4.00. Consider `O=C(NCC1CCCCC1)c1cccc(O)c1O` [Compound 5m, N-(Cyclohexylmethyl)-2,3-dihydroxybenzamide], for which the pIC50 in data set [1] was under 4.00. Still for that read-out and setting: to `O=C(Nc1ccc2[nH]ccc2c1)c1cccc(O)c1O` [Compound 5g, 2,3-Dihydroxy-N-(1H-indol-5-yl)benzamide] belongs under 4.00; to `CNS(=O)(=O)c1cc(O)c(O)c(C(=O)NCc2ccc(F)cc2)c1` [Compound 5q, N-(4-Fluorobenzyl)-2,3-dihydroxy-5-(N-methylsulfamoyl)benzamide], under 4.00. On the same count and under the same terms, to `CN(C)Cc1ccc(C(=O)NCc2ccco2)c(O)c1O` [Compound 6b, 4-((Dimethylamino)methyl)-N-(furan-2-ylmethyl)-2,3-dihydroxybenzamide] belongs under 4.00; to `O=C(NCc1cccc2ccccc12)c1cccc(O)c1O` [Compound 5c, 2,3-Dihydroxy-N-(naphthalen-1-ylmethyl)benzamide], under 4.00. With `O=C(O)c1ccc(OCc2ccccc2)cc1O` [Compound 3d, 4-(Benzyloxy)-2-hydroxybenzoic acid], the pIC50 in data set [1] and in data set [2] was under 4.00 each time. Take `O=C(O)c1c(O)cccc1OCc1ccc2ccccc2c1` [Compound 3j, 2-((Naphthalen-2-yl)methoxy)-6-hydroxybenzoic acid]: in data set [1], the pIC50 was under 4.00.

For `O=C(O)c1c(O)cccc1OCc1ccc(F)cc1` [Compound 3i, 2-(4-Fluorobenzyloxy)-6-hydroxybenzoic acid], the pIC50 in data set [1] and in data set [2] was under 4.00 each time. On to `O=C(O)c1cccc(OCc2ccc(F)cc2)c1O` [Compound 3b, 3-(4-Fluorobenzyloxy)-2-hydroxybenzoic acid], for which the pIC50 in data set [1] and in data set [2] was under 4.00 each time.

The term pIC50 denotes the negative decadic logarithm of the IC50, by convention in mol/L.
